# Measurements taken from paper PMC11217295, “The immune response to RNA suppresses nucleic acid synthesis by limiting ribose 5-phosphate” (The EMBO Journal, 2024).
# Molecular target: Ribose 5-Phosphate Isomerase A (RPIA) (Homo sapiens, UniProt P49247)
# Assay: continuous spectrophotometric isomerase assay with recombinant RPIA
# Assay type: biochemical
# Parameters: recombinant Streptavidin-tagged human RPIA expressed in E. coli
# Source text: continuous spectrophotometric isomerase assay with recombinant RPIA on Ribose 5-Phosphate Isomerase A (RPIA) | validated its activity against the human isomerase in a continuous spectrophotometric assay.
# Sequence of Ribose 5-Phosphate Isomerase A (RPIA) (P49247 whole entry): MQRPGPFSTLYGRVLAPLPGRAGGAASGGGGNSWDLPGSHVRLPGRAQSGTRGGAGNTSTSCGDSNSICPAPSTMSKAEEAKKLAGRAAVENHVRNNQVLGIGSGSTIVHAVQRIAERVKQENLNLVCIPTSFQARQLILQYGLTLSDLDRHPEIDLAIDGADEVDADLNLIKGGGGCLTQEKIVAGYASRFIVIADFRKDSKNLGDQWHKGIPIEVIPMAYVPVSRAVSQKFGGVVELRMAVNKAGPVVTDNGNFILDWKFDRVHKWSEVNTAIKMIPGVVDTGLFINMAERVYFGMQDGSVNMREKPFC
compound,measurement,value
O=C(NO)[C@H](O)[C@H](O)COP(=O)(O)O [JNB-hu20-057-2A],continuous spectrophotometric isomerase assay with recombinant RPIA,validated its activity against the human isomerase in a continuous spectrophotometric assay. This shows the inhibitor suppresses the activity
